In ChEMBL document CHEMBL4706652, “Synthesis of 4-(3-oxo-3-phenylpropyl)morpholin-4-ium chloride analogues and their inhibitory activities of nitric oxide production in lipopolysaccharide-induced BV2 cells” (Bioorg Med Chem Lett, 2021):
Counter-ions that a name gives are not always drawn.

What was measured:
[1] = Inhibition of LPS-induced nitric oxide production in […] BV-2 cells at 20 uM measured after 24 hrs by Griess reagent assay relative to control; type: functional, Mus musculus; conditions: for inhibition at 20 µM: BV-2, 24 h
[2] = Cytotoxicity against LPS-induced […] BV-2 cells assessed as cell viability at 20 uM measured after 24 hrs by MTT assay relative to control; type: cell-based; conditions: for viability at 24 h, 20 µM: LPS-induced BV-2 cells, read-out: Activity
[3] = (§1) Inhibition of LPS-induced nitric oxide production in […] BV-2 cells measured after 24 hrs by Griess reagent assay; type: functional, cell-based; conditions: BV-2, 24 h
BV-2 [4] = assay: as §1; type: functional, cell-based
BV-2 [5] = assay: Inhibition of LPS-induced nitric oxide production in […] BV-2 cells assessed as decrease in iNOS mRNA expression pretreated with LPS for 1 hr and measured after 6 hrs by RT-PCR analysis; type: functional, cell-based; conditions: dose 2-20 µM, time 7.0 hrs
BV-2 [6] = assay: Inhibition of LPS-induced nitric oxide production in […] BV-2 cells assessed as decrease in iNOS protein expression pretreated with LPS for 1 hr and measured after 18 hrs by immunoblot analysis; type: functional, cell-based; conditions: dose 2-20 µM, time 19.0 hrs
[7] = Inhibition of LPS-induced nitric oxide production in […] BV-2 cells at 12.5 to 50 uM measured after 24 hrs by Griess reagent assay relative to control; type: functional; conditions: dose 12.5-50 µM
[8] = Cytotoxicity against LPS-induced […] BV-2 cells assessed as cell viability at 12.5 to 50 uM measured after 24 hrs by MTT assay; type: cell-based; conditions: bv-2, 24 h, dose 12.5-50 µM
cells = conditions: Homo sapiens, BV-2, 24 h, read-out: INH
Description: Inhibition of LPS-induced nitric oxide production in human BV-2 cells at 10 uM measured after 24 hrs by Griess reagent assay relative to control

| Structure (SMILES) | inhibition at 20 µM [1] [%] | viability at 24 h, 20 µM [2] [%] | other results |
| --- | --- | --- | --- |
| O=C(CCN1CCOCC1)c1ccc([N+](=O)[O-])cc1 | 73.1 | 98.3 | – |
| O=C(CCN1CCOCC1)c1cccc(C(F)(F)F)c1 | 44.6 | 100 | – |
| O=C(CCN1CCOCC1)c1ccc(C(F)(F)F)cc1 | 50.3 | 96.1 | – |
| O=C(Cc1ccccc1)CN1CCOCC1 | 17.4 | 100 | – |
| O=C(CCN1CCOCC1)c1ccc(O)cc1 | 26.5 | 99 | – |
| O=C(CCN1CCOCC1)c1ccc(Br)cc1 | 41.6 | 100 | – |
| O=C(CCN1CCOCC1)c1ccccc1C(F)(F)F | 78.3 | 100 | IC50 [3]: 8.6 µM; inhibition (BV-2 [4]): Dose-dependent effect; inhibition (BV-2 [5]): Dose-dependent effect; inhibition (BV-2 [6]): Dose-dependent effect |
| O=C(CCN1CCOCC1)c1ccccc1 | 31.8 | 99.8 | – |
| CN(C)c1ccc(C(=O)CCN2CCOCC2)cc1 | 32.8 | 100 | – |
| Cl.O=C(CCN1CCOCC1)c1ccccc1 | – | – | IC50 [3]: > 50 µM; inhibition (INH) [1]: 29.3%; inhibition (INH) [7]: 49%; Activity [8]: Non-Toxic; Activity ([2]; bv-2, 24 h, 20 µM): 96.7% |
| O=C(CCN1CCOCC1)c1ccc(I)cc1 | 41.6 | 89.4 | – |
| O=C(CN1CCOCC1)C(=O)c1ccccc1 | 19.2 | 100 | – |
| Cc1ccc(C(=O)CCN2CCOCC2)cc1 | 36 | 100 | – |
| O=C(CCN1CCOCC1)c1ccc(F)cc1 | 35.2 | 95 | – |
| O=C(CC(=O)N1CCOCC1)c1ccccc1 | 20.1 | 99.7 | – |
| CNCCC(Oc1ccc(C(F)(F)F)cc1)c1ccccc1 (centres undefined) [FLUOXETINE HYDROCHLORIDE] | – | – | inhibition at 10 µM (cells): 31.2% |
| Nc1ccc(C(=O)CCN2CCOCC2)cc1 | 25.2 | 100 | – |
| O=C(CCN1CCOCC1)c1ccc(Cl)cc1 | 40.3 | 100 | – |
| COc1ccc(C(=O)CCN2CCOCC2)cc1 | 33.3 | 100 | – |
